We go through three compounds from article PMC6529709 (Heliyon, 2019).

Sequence of urease (from jack bean) (P07374 whole entry, looked up): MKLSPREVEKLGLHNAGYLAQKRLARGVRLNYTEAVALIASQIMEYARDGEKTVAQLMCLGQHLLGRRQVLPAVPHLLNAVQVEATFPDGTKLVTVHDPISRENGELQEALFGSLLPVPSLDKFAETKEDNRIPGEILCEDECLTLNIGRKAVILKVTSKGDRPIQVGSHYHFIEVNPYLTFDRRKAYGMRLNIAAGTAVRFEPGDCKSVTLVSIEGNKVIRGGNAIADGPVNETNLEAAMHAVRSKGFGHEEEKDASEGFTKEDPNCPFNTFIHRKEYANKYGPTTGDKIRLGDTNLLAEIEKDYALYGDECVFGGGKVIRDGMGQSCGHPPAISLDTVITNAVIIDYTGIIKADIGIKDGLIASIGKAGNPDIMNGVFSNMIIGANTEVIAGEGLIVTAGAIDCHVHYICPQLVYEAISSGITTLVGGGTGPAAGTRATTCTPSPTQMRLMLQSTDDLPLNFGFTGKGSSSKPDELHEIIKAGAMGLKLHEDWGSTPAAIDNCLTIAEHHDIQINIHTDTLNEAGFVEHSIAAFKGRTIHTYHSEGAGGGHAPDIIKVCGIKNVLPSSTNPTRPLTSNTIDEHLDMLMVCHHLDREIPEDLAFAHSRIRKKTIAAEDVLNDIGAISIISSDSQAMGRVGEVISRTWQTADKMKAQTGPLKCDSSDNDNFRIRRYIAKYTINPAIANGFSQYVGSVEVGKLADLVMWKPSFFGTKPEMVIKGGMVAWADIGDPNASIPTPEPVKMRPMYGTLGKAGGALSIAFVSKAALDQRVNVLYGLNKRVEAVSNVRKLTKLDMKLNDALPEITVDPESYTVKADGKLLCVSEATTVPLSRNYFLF

The assay addresses urease (from jack bean) (Canavalia ensiformis, UniProt P07374). Nature of the assay: indophenol. In kind it is biochemical.
On to `COc1ccc(/C=N/N=C/c2ccc(OC)cc2)cc1` [ASB1], for which 38.4 µM corresponded to half-maximal inhibition (IC50).

In turn, `COc1ccc(/C=N/c2cc(Cl)cc(Cl)c2)cc1` [ASB2] showed an IC50 of 184 µM.

On to `NC(N)=S` [Thiourea, reference compound], for which inhibition was half-maximal at 65.3 µM (IC50).

As usually defined, the IC50 is the concentration that inhibits the measured activity by half. The low end stands for inhibition by little substance, the high end for a need for much substance.
